The test system of the assay is P. aeruginosa PAK strain. Format: cell-based.

In the case of “acetyl-QIDPEFK-NH2 (Ac-QIDPEFK-NH2) [scrambled peptide]”, the “reduction of adherence to A549 cells” value is “did not interfere with adherence”.

Turning to “acetyl-DEQFIPK-NH2 (Ac-DEQFIPK-NH2) [core pilin peptide]”, the “reduction of adherence to A549 cells” value is “approximately 50%”.

For the substance “acetyl-KCTSDQDEQFLPKGCSK-NH2 (Ac-KCTSDQDEQFLPKGCSK-NH2; cysteine pairing not given here) [long pilin peptide]”, the “reduction of adherence to A549 cells” value is on record as “approximately 50%”.

The values above are taken from patent US7314625B2 (priority 2000, dated 2008).
